Tests used:
Format in all cases: in vivo
[1] = Bitter reduction of a caffeine solution, rated by a group of experts
From the text: In order to quantify the decrease (i.e. the masking or reduction) in bitter impression in a specimen, the bitterness of a 500 ppm caffeinated solution was compared by a group of experts in each case with a specimen containing 500 ppm caffeine and also various concentrations of deoxy hesperetin dihydrochalcone (I) (rating: 1 [not bitter] to 10 [extremely bitter]).
For the assessment, i.e. calculation of the reduction (in %) of the bitter impression in each case the average values of the assessments of the group of experts for the caffeinated solution and the specimen to be compared containing caffeine and a substance to be assessed were used. 2,4-dihydroxybenzoic acid (2,4-DHB) was used here for comparison (reference) in accordance with U.S. Pat. No. 5,643,941.

[2] = Intensification of the sweet impression of a sugar solution, rated by a group of experts; parameters: key to Sweet impression (1-10) Specimen (Sucrose + (I)) / Sweet impression (1-10) Specimen (sucrose + substance): 1 = not sweet, 10 = extremely sweet
From the text: In order to quantify the intensification of the sweet impression, in each case the sweetness of a 5% sucrose solution was compared by a group of experts with a specimen containing 5% sucrose and 10 ppm, 25 ppm, 50 ppm or 75 ppm of the deoxy hesperetin dihydrochalcone (I) to be used according to the invention (rating: 1 [not sweet] to 10 [extremely sweet]).
For the assessment, i.e. calculation of the intensification (in %) of the sweet impression in each case the average values of the assessments of the group of experts for the sucrose solution and the specimen for comparison containing sucrose and deoxy hesperetin dihydrochalcone (I) were used.
In order to quantify the intensification of the sweetness impression, in each case the sweetness of a 5% sucrose solution was compared by a group of experts with a specimen containing 5% sucrose and 30 ppm or 50 ppm of a deoxy dihydrochalcone ((rating: 1 [not sweet] to 10 [extremely sweet])).
For the assessment, i.e. calculation of the intensification (in %) of the sweet impression in each case the average values of the assessments of the group of experts for the sucrose solution and the specimen containing sucrose and deoxy dihydrochalcone for comparison were used.

[3] = Sucrose equivalence in a 5% sucrose solution with (I), panelists; conditions: 0.0100 % by weight (I); purely additive expected value
[4] = Bitter reduction of a naringin solution, rated by a group of experts; conditions: 100 ppm naringin + 50 ppm (I)
From the text: (§1) In order to quantify the decrease (i.e. the masking or reduction) in the bitter impression in a specimen, the bitterness of a solution containing either 100 ppm naringin or 250 ppm salicin or 500 ppm epigallocatechin gallate and 75 ppm ascorbic acid was compared by a group of experts in each case with a specimen containing either 100 ppm naringin or 250 ppm salicin or 500 ppm epigallocatechin gallate and 75 ppm ascorbic acid and additionally 50 ppm deoxy hesperetin dihydrochalcone (I) (rating: 1 [not bitter] to 10 [extremely bitter]).
(§2) For the assessment, i.e. calculation of the reduction (in %) of the bitter impression in each case the average values of the assessments of the group of experts for the respective bitter substance solution and the bitter substance solution also containing 50 ppm deoxy hesperetin dihydrochalcone (I) were used.

[5] = Bitter reduction of an epigallocatechin gallate solution, rated by a group of experts; conditions: 500 ppm epigallocatechin gallate + 75 ppm ascorbic acid + 50 ppm (I)
From the text: as §1, §2

[6] = Bitter reduction of a salicin solution, rated by a group of experts; conditions: 250 ppm salicin + 50 ppm (I)
From the text: as §1, §2

[7] = Inherent sweetness in water against a sucrose concentration series (sucrose equivalence), panelists
From the text: (§3) The panelists were asked to test each solution of the compound (I) in water against the sucrose series and to rate it according is degree of sweetness (sucrose equivalence). From the results produced by the panelists it was possible to determine the inherent sweetness of the deoxy hesperetin dihydrochalcone (I) for the above-mentioned concentrations. Apart from the sucrose equivalence of the solutions of the compound (I) in water (i.e. without sucrose) the sucrose equivalence in a 5% sucrose solution was also determined with a corresponding quantity of compound (I).

[8] = Sucrose equivalence in a 5% sucrose solution with (I), panelists; conditions: for Sucrose equivalence in a 5% sucrose solution with (I), Calculation (5 + x) %: purely additive expected value; for synergy or synergistic additional effect: determined vs theoretically expected value
From the text: as §3
In all the cases tested a synergistic intensification in sweetness was found when an in itself not sweet concentration of deoxy hesperetin dihydrochalcone (I) was added. So it could in theory be expected that a 5% sucrose solution (i.e. a sucrose solution which sensorially by definition corresponds to 5% sucrose equivalents), containing 10 ppm, 25 ppm, 50 ppm or 75 ppm deoxy hesperetin dihydrochalcone (I), through a purely additive effect of the inherent sweetness of deoxy hesperetin dihydrochalcone (I) (see the sucrose equivalence determined in water) results in a sweetness of approximately 5.13%, 5.33%, 5.58% and again 5.58% sucrose equivalents. […] This corresponds in view of the purely theoretically expected values to a synergy or a synergistic additional effect of approximately 25%, 29%, 47% or 27%. It is noticeable that at the maximum tested concentration of 75 ppm—as might be expected—neither the maximum absolute nor the maximum synergistic intensification was measured.

[9] = 100 ppm substance + 500 ppm caffeine vs caffeinated solution
[10] = 100 ppm substance + 500 ppm caffeine, rating 1 [not bitter] to 10 [extremely bitter]
[11] = Application example 4: 50 ppm deoxy dihydrochalcone + 5% sucrose vs sucrose solution
[12] = Application example 4: 50 ppm deoxy dihydrochalcone + 5% sucrose, rating 1-10

O=C(O)c1ccc(O)cc1O [2,4-DHB, 2,4-dihydroxybenzoic acid, reference compound]
Reduction in bitter impression [1, 9]: 3%
Bitter impression (1-10) Specimen (Caffeine + substance) [1, 10]: 5.0 ± 1.0

COc1cc(CCC(=O)c2ccc(O)cc2O)ccc1O [2′,4,4′-trihydroxy-3-methoxy dihydrochalcone, reference compound]
Intensification of the sweet effect [2, 11]: 8%
Sweet impression (1-10) Specimen (sucrose + substance) [2, 12]: 5.6 ± 1.4

O=C(CCc1ccc(O)cc1)c1ccc(O)cc1O [davidigenin (1), davidigenin, reference compound]
Intensification of the sweet effect ([2]; Application example 4: 30 ppm deoxy dihydrochalcone + 5% sucrose vs sucrose solution): 2%
Sweet impression (1-10) Specimen (sucrose + substance) ([2]; Application example 4: 30 ppm deoxy dihydrochalcone + 5% sucrose, rating 1-10): 5.7 ± 1.4

COc1ccc(CCC(=O)c2ccc(O)cc2O)cc1O [deoxy hesperetin dihydrochalcone (I), 1-(2,4-dihydroxy-phenyl)-3-(3-hydroxy-4-methoxy-phenyl)-propan-1-one]
Sucrose equivalence in a 5% sucrose solution with (I), Calculation (5 + x) % [3]: 5.79%
Reduction in bitter impression [4]: 7%
Bitter impression (1-10) Bitter substance + (I) ([4]; rating 1-10): 6.4 ± 2.4
Reduction in bitter impression [5]: 10%
Bitter impression (1-10) Bitter substance + (I) ([5]; rating 1-10): 6.1 ± 2.9
Reduction in bitter impression ([1]; 10 ppm substance + 500 ppm caffeine vs caffeinated solution): 2%
Bitter impression (1-10) Specimen (Caffeine + substance) ([1]; 10 ppm substance + 500 ppm caffeine, rating 1-10): 4.8 ± 1.6
Reduction in bitter impression ([1]; 25 ppm substance + 500 ppm caffeine vs caffeinated solution): 26%
Bitter impression (1-10) Specimen (Caffeine + substance) ([1]; 25 ppm substance + 500 ppm caffeine, rating 1-10): 3.8 ± 1.5
Reduction in bitter impression ([1]; 50 ppm substance + 500 ppm caffeine vs caffeinated solution): 11%
Bitter impression (1-10) Specimen (Caffeine + substance) ([1]; 50 ppm substance + 500 ppm caffeine, rating 1-10): 3.7 ± 1.6
Reduction in bitter impression [1, 9]: 3%
Bitter impression (1-10) Specimen (Caffeine + substance) [1, 10]: 4.9 ± 1.9
Reduction in bitter impression [6]: 15%
Bitter impression (1-10) Bitter substance + (I) ([6]; rating 1-10): 6.5 ± 2.2
Intensification of the sweet impression ([2]; 10 ppm (I) + 5% sucrose vs sucrose solution): 21%
Sweet impression (1-10) Specimen (Sucrose + (I)) ([2]; 10 ppm (I) + 5% sucrose, rating 1 [not sweet] to 10 [extremely sweet]): 6.4 ± 1.6
Intensification of the sweet impression ([2]; 25 ppm (I) + 5% sucrose vs sucrose solution): 42%
Sweet impression (1-10) Specimen (Sucrose + (I)) ([2]; 25 ppm (I) + 5% sucrose, rating 1-10): 6.9 ± 1.9
Intensification of the sweet impression ([2]; 50 ppm (I) + 5% sucrose vs sucrose solution): 48%
Sweet impression (1-10) Specimen (Sucrose + (I)) ([2]; 50 ppm (I) + 5% sucrose, rating 1-10): 8.2 ± 0.9
Intensification of the sweet impression ([2]; 75 ppm (I) + 5% sucrose vs sucrose solution): 21%
Sweet impression (1-10) Specimen (Sucrose + (I)) ([2]; 75 ppm (I) + 5% sucrose, rating 1-10): 7.1 ± 1.7
Intensification of the sweet effect [2, 11]: 48%
Sweet impression (1-10) Specimen (sucrose + substance) [2, 12]: 8.2 ± 0.9
sweetness-intensifying effect ([2]; own investigations): strong, sweetness-intensifying effect
sweetness intensifying effect compared with structurally related substances (1)-(3) ([2]; see Application example 4): clearly the most powerful compound
Determination of the sucrose equivalence in water (without sucrose) ([7]; 0.0010 % by weight (I) in water): 0.13%
Determination of the sucrose equivalence in water (without sucrose) ([7]; 0.0025 % by weight (I) in water): 0.33%
Determination of the sucrose equivalence in water (without sucrose) ([7]; 0.0050 % by weight (I) in water): 0.58%
Determination of the sucrose equivalence in water (without sucrose) ([7]; 0.0075 % by weight (I) in water): 0.58%
Determination of the sucrose equivalence in water (without sucrose) ([7]; 0.0100 % by weight (I) in water): 0.79%
own sweetness of the compound ([7]; own investigations): not in itself particularly sweet
Sucrose equivalence in a 5% sucrose solution with (I), Determination ([8]; 0.0010 % by weight (10 ppm) (I) in 5% sucrose): 6.4%
Sucrose equivalence in a 5% sucrose solution with (I), Determination ([8]; 0.0025 % by weight (25 ppm) (I) in 5% sucrose): 6.9%
Sucrose equivalence in a 5% sucrose solution with (I), Calculation (5 + x) % ([8]; 0.0025 % by weight (25 ppm) (I)): 5.33%
Sucrose equivalence in a 5% sucrose solution with (I), Determination ([8]; 0.0050 % by weight (50 ppm) (I) in 5% sucrose): 8.2%
Sucrose equivalence in a 5% sucrose solution with (I), Calculation (5 + x) % ([8]; 0.0050 % by weight (50 ppm) (I)): 5.58%
Sucrose equivalence in a 5% sucrose solution with (I), Determination ([8]; 0.0075 % by weight (75 ppm) (I) in 5% sucrose): 7.1%
Sucrose equivalence in a 5% sucrose solution with (I), Calculation (5 + x) % ([8]; 0.0075 % by weight (75 ppm) (I)): 5.58%
synergy or synergistic additional effect ([8]; 10 ppm (I) in 5% sucrose): approximately 25%
synergy or synergistic additional effect ([8]; 25 ppm (I) in 5% sucrose): ~29%
synergy or synergistic additional effect ([8]; 50 ppm (I) in 5% sucrose): ~47%
synergy or synergistic additional effect ([8]; 75 ppm (I) in 5% sucrose): ~27%

COc1ccc(CCC(=O)c2ccc(O)cc2O)cc1 [reference compound]
Intensification of the sweet effect [2, 11]: 12%
Sweet impression (1-10) Specimen (sucrose + substance) [2, 12]: 6.1 ± 1.8

Source: patent publication US8992892B2, “Use of 1-(2,4-dihydroxy-phenyl)-3-(3-hydroxy-4-methoxy-phenyl)-propan-1-one” (SYMRISE AG, priority 2010, dated 2015)
